Experimental data reported in article PMC10046071 (Biomedicines, 2023).
“And” between values parts separate entries of the source, which are not always exact repeats. Equal values may be shown once.

Tests used:
[1] = Therapeutic drug monitoring: steady-state plasma pharmacokinetics in patients with CML; conditions: for Tmax / Cmin / Cmax: steady state; for CL/F: apparent oral clearance
[2] = tested on: cytochrome P450 (CYP) 3A4; conditions: cited from earlier work
[3] = Stability of stock and working solutions and of extracted samples in the autosampler; type: physicochemical; conditions: for stock solution stability, value for accuracy: DMSO stock, 10 days at −80 °C, versus freshly made, CV 3.7%; for working solution stability, value for accuracy: methanol, 8 h at room temperature, with or without light, CV 6.5%
Excerpt: However, in the present study it has been conducted to study the stability of the stock and working solutions, freeze–thaw stability and autosampler stability. For all stability studies, the analyte stability should fall within 85−115% of the nominal concentration and was not allowed to deviate more than ±15% from the nominal concentration of all the QCs studied, as indicated in the Guidelines for Bioanalytical Methods Validation.
On the other hand, the stability of the working solutions in methanol on each test day was evaluated after 8 h at room temperature with light and in the dark.
The stability in the autosampler of the sample after the extraction process was evaluated at room temperature in the range between 2 and 8 h.

[4] = no reference given; cited from earlier work
[5] = cited from earlier work
[6] = 4 CML patients
[7] = 493 subjects with CML; cited from earlier work
[8] = in vitro, human plasma; cited from earlier work
[9] = Patient 1, 200–300 mg twice-daily oral
[10] = Patient 2, 200–300 mg twice-daily oral
[11] = Patient 3, 200–300 mg twice-daily oral
[12] = Patient 4, 200–300 mg twice-daily oral
[13] = 17 patients, 300 mg twice-daily
[14] = co-administered with a high-fat meal

With `Cc1cn(-c2cc(NC(=O)c3ccc(C)c(Nc4nccc(-c5cccnc5)n4)c3)cc(C(F)(F)F)c2)cn1` [nilotinib, Nilotinib] the t1/2 ([1]; Mean (SD) of 4 patients) was 78.1 (75.4) h, the Tmax ([1]; Mean (SD) of 4 patients) was 2.3 (1.3) h and the Cmin ([1]; Mean (SD) of 4 patients, 200–300 mg twice-daily) was 1193.5 ng/mL and 1193.5 (414.7) ng/mL. The CL/F ([1]; Patient 1) was 2.8 L/h, the t1/2 ([1]; Patient 1, elimination half-life) was 25.1 h and the Tmax ([1]; Patient 1) was 1 h. The Cmax [1, 9] was 3491.4 ng/mL, the Cmin [1, 9] was 1633.9 ng/mL and the CL/F ([1]; Patient 2) was 1.9 L/h. The t1/2 ([1]; Patient 2, elimination half-life) was 69.3 h, the Tmax ([1]; Patient 2) was 2 h and the Cmax [1, 10] was 1137.2 ng/mL. It also gave a Cmin [1, 10] of 768.9 ng/mL, a CL/F ([1]; Patient 3) of 0.6 L/h and a t1/2 ([1]; Patient 3, elimination half-life) of 187.4 h. The Tmax ([1]; Patient 3) was 2 h, the Cmax [1, 11] was 1988.4 ng/mL and the Cmin [1, 11] was 1450.3 ng/mL. For the same compound, the CL/F ([1]; Patient 4) was 5.7 L/h, the t1/2 ([1]; Patient 4, elimination half-life) was 30.7 h and the Tmax ([1]; Patient 4) was 4 h. For the same compound, the Cmax [1, 12] was 1103.5 ng/mL, the Cmin [1, 12] was 920.7 ng/mL and the metabolizing enzymes [2] was “metabolized primarily by cytochrome P450 (CYP) 3A4 isoform and with minor contributions from CYP2C8”. For the same compound, the “stock solution stability, value for accuracy” value [3] was “less than 1.5%”, the “degradation on the autosampler” value ([3]; extracted sample, up to 8 h, room temperature) was under 8.3% and the “working solution stability, value for accuracy” value [3] was “lower than 15.1%”. The “aqueous solubility versus pH” value [4] was “decreases significantly with increased pH”, the pKa [4] was 12.38 and the solubility [4] was “good solubility in DMSO, organic solvents (methanol and acetonitrile) and acidic aqueous solution”. The “Cmin at a steady state” value ([5]; 300 mg twice-daily, some clinical trials, no reference given) was about 1123 ng/mL, the “Cmax at steady state” value [5, 13] was 1360 ng/mL and the “Cmin at steady state” value [5, 13] was 1123 ng/mL. For the same compound, the “interindividual variability in exposure (coefficient of variation)” value [5] was 32–64%, the “increase in the AUC” value [5, 14] was 50–82% and the “increase in the Cmax” value [5, 14] was “up to 112%”. The “mean area under the curve (AUC)” value ([5]; oral 400 mg twice daily) was 19000 ± 9100 ng·h/mL, the “mean maximum plasma concentration (Cmax)” value ([5]; oral 400 mg twice daily) was 2320 ± 1070 ng/mL and the “Correlation of Cmin with ALT (U/L)” value [6] was −0.3552. For the same compound, the “Correlation of Cmin with AST (U/L)” value [6] was −0.0833, the “Correlation of Cmin with Alkaline phosphatase (U/L)” value [6] was 0.7497 and the “Correlation of Cmin with Haemaglobin (g/dL)” value [6] was −0.0319. The “Correlation of Cmin with Haematocrit (%)” value [6] was 0.0870, the “Correlation of Cmin with Leukocytes (×10^3/µL)” value [6] was −0.9194 and the “Correlation of Cmin with Neutrophils (×10^3/µL)” value [6] was −0.0280. The “Correlation of Cmin with Platelet (×10^3/µL)” value [6] was −0.6949, the “Correlation of Cmin with Serum bilirrubin (mg/dL)” value [6] was −0.4013 and the “Correlation of Cmin with Serum creatinine (g/dL)” value [6] was −0.1897. For the same compound, the “trough concentration (Cmin) associated with longer times to complete cytogenetic response and MMR and shorter time to progression” value [7] was under 469.4 ng/mL and the plasma protein binding [8] was “approximately 98%”.
With `Cc1cc(/C=C/C#N)cc(C)c1Nc1ccnc(Nc2ccc(C#N)cc2)n1` [rilpivirine] the “stock solution stability, value for accuracy” value [3] was “less than 1.5%” and the “working solution stability, value for accuracy” value [3] was “lower than 15.1%”.
